ChEMBL document CHEMBL2346650, “Cytotoxic scalarane sesterterpenes from a Korean marine sponge Psammocinia sp” (Bioorg Med Chem Lett, 2013)

Assays:
ACHN = assay: Cytotoxicity against human ACHN cells after 72 hrs by MTT assay; assay type: functional, cell-based
CV-1 = assay: Cytotoxicity against african green monkey CV1 cells after 72 hrs by MTT assay; assay type: cell-based; settings: Chlorocebus aethiops, CV-1, 72 h
A498 = assay: Cytotoxicity against human A498 cells after 72 hrs by MTT assay; assay type: functional, cell-based; settings: A498, 72 h
PANC-1 = assay: Cytotoxicity against human PANC1 cells after 72 hrs by MTT assay; assay type: functional, cell-based; settings: PANC-1, 72 h
[1] = Cytotoxicity against human MiaPaCa cells after 72 hrs by MTT assay; assay type: functional, cell-based; settings: MIA PaCa-2, 72 h

## CC(=O)OC[C@]12CCCC(C)(C)[C@@H]1CC[C@]1(C)[C@@H]2C[C@@H](OC(C)=O)[C@]2(C)c3cocc3CC[C@@H]12
ACHN
  IC50: > 50 µM
CV-1
  IC50: > 50 µM
A498
  IC50: > 50 µM
PANC-1
  IC50: 48 µM
[1]
  IC50: 31.1 µM

## CC(=O)O[C@@H]1OC=C2[C@@H](OC(C)=O)C[C@@H]3[C@](C)(CC[C@H]4[C@@]3(C)CC[C@H]3C(C)(C)CCC[C@@]34CO)[C@H]21
ACHN
  IC50: 0.4 µM
CV-1
  IC50: 0.8 µM
A498
  IC50: 0.7 µM
PANC-1
  IC50: 0.4 µM
[1]
  IC50: 0.7 µM

## CC(=O)OC[C@]12CCCC(C)(C)[C@@H]1CC[C@@]1(C)[C@@H]3CC=C4C(=O)O[C@@H](O)[C@@H]4[C@@]3(C)CC[C@@H]12
ACHN
  IC50: 1.3 µM
CV-1
  IC50: 2.1 µM
A498
  IC50: 1.3 µM
PANC-1
  IC50: 1.3 µM
[1]
  IC50: 1.2 µM

## CC(=O)OC[C@]12CCCC(C)(C)[C@@H]1CC[C@@]1(C)[C@@H]3C[C@H](OC(C)=O)C4=CO[C@@H](OC(C)=O)[C@@H]4[C@@]3(C)CC[C@@H]12
ACHN
  IC50: 5.8 µM
CV-1
  IC50: 3 µM
A498
  IC50: 5.7 µM
PANC-1
  IC50: 1.6 µM
[1]
  IC50: 2.8 µM

## CC1(C)CCC[C@@]2(CO)[C@H]1CC[C@]1(C)[C@@H]2CC[C@]2(C)C3=C(C(=O)O[C@H]3O)C(O)C[C@@H]12 (mixture of isomers)
ACHN
  IC50: > 50 µM
CV-1
  IC50: > 50 µM
A498
  IC50: 40.7 µM
PANC-1
  IC50: > 50 µM
[1]
  IC50: > 50 µM

## CC1(C)CCC[C@@]2(CO)[C@H]1CC[C@@]1(C)[C@@H]3CC=C(C=O)[C@H](C=O)[C@@]3(C)CC[C@@H]12 [12-DEACETOXY-23-HYDROXYSCALARADIAL]
ACHN
  IC50: > 50 µM
CV-1
  IC50: > 50 µM
A498
  IC50: > 50 µM
PANC-1
  IC50: 34.3 µM
[1]
  IC50: 31.1 µM

## CC1(C)CCC[C@]2(C)[C@H]3CC[C@@]4(C)[C@@H](CC=C(C=O)[C@@H]4C=O)[C@]3(C)CC[C@@H]12 [12-DEACETOXYSCALARADIAL]
ACHN
  IC50: > 50 µM
CV-1
  IC50: 45 µM
A498
  IC50: > 50 µM
PANC-1
  IC50: 38.8 µM
[1]
  IC50: 45.9 µM

## Nc1ccn([C@@H]2O[C@H](CO)[C@@H](O)C2(F)F)c(=O)n1 [GEMCITABINE]
CV-1
  IC50: 21.9 µM
PANC-1
  IC50: > 50 µM
[1]
  IC50: 17.1 µM

## CCN(CC)CCNC(=O)c1c(C)[nH]c(/C=C2\C(=O)Nc3ccc(F)cc32)c1C [SUNITINIB]
ACHN
  IC50: 5.7 µM
A498
  IC50: 4.3 µM

## CO[C@H]1C[C@@H]2CC[C@@H](C)[C@@](O)(O2)C(=O)C(=O)N2CCCC[C@H]2C(=O)O[C@H]([C@H](C)C[C@@H]2CC[C@@H](OC(=O)C(C)(CO)CO)[C@H](OC)C2)CC(=O)[C@H](C)/C=C(\C)[C@@H](O)[C@@H](OC)C(=O)[C@H](C)C[C@H](C)/C=C/C=C/C=C/1C [TEMSIROLIMUS]
A498
  IC50: 34.3 µM
